B1: zinc-alpha-2-glycoprotein (ZAG) protein (protein, listed as Homo sapiens)
chain: MVRMVPVLLSLLLLLGPAVPQENQDGRYSLTYIYTGLSKHVEDVPAFQALGSLNDLQFFRYNSKDRKSQPMGLWRQVEGMEDWKQDSQLQKAREDIFMETLKDIVEYYNDSNGSHVLQGRFGCEIENNRSSGAFWKYYYDGKDYIEFNKEIPAWVPFDPAAQITKQKWEAEPVYVQRAKAYLEEECPATLRKYLKYSKNILDRQDPPSVVVTSHQAPGEKKKLKCLAYDFYPGKIDVHWTRAGEVQEPELRGDVLHNGNGTYQSWVVVAVPPQDTAPYSCHVQHSSLAQPLVVPWEAS

Tests used:
HDFs = assay: Scratch assay, cell migration of HDFs in TGF-β scar environment; assay type: cell-based, human; conditions: HDF scratched, 10 ng/mL TGF-β, 24 hours, compared to TGF-β-treated group
Method: (§1) HDFs and KFs were seeded in a 6-well plate. After 24 hours, the center of each well was scratched to create a wound. Thereafter, the HDF test group was treated with 10 ng/mL of TGF-β, which is overexpressed during scar formation, to create a scar environment, and then treated with the selected Z16 peptide. The migration of cells in the affected area was confirmed 24 hours later.
as §1, with “a wound generation model.” for “a wound.”, “a scarring” for “a scar”, “with Z15mer_1 to Z15mer_4 additionally synthesized in Preparation Example 2.” for “with the selected Z16 peptide.”

[1] = system: human dermal fibroblasts (HDFs); assay: CCK-8 assay, cell proliferation of HDFs; assay type: cell-based; conditions: HDF, 10 μg/mL, compared to untreated negative control / other candidates
Method: (§2) A CCK-8 assay was performed to select amino acid sequences corresponding to the core active region of ZAG, which has an inhibitory effect on the formation of scars, among the 18 peptide candidates. Human dermal fibroblasts (HDFs) and keloid fibroblasts (KFs) were treated with the ZAG protein-derived peptide candidates (Z1 to Z18) and the ZAG protein (ZAG) at a concentration of 10 μg/mL, and cell proliferation was then confirmed using a CCK-8 assay. A group treated with the ZAG protein alone was used as a positive control, and an untreated group was used as a negative control.
(§3) Specifically, HDFs and KFs were treated with the ZAG protein (ZAG), Z16, and the ZAG protein-derived peptide candidates (Z15mer_1 to Z15mer_4) additionally synthesized in Preparation Example 2 at a concentration of 10 μg/mL, and cell proliferation was then confirmed through a CCK-8 assay.

[2] = system: collagen I, III, TGF-β, pSMAD2/3; assay: RNA (PCR) and protein (Western blotting) expression in scratched, TGF-β-treated HDFs; assay type: cell-based, human; conditions: HDF, TGF-β + peptide vs TGF-β-treated group; for mRNA expression of collagen I, III, and TGF-β: PCR; for protein expression of collagen I, III, TGF-β, and pSMAD2/3: Western blotting
Method: as §1
(§4) Cells were treated with Z16 under the same conditions as in Example 2-1, and the expression of RNA and proteins involved in the formation of hypertrophic scars or keloids was analyzed. The expression was confirmed through PCR and Western blotting.
as §1, with “a wound generation model.” for “a wound.”, “a scarring” for “a scar”, “with Z15mer_1 to Z15mer_4 additionally synthesized in Preparation Example 2.” for “with the selected Z16 peptide.”
(§5) Cells were treated with Z16 under the same conditions as in Example 3-1, and the expression of RNA and proteins involved in the formation of hypertrophic scars or keloids was analyzed. The expression was confirmed through PCR and Western blotting.

[3] = system: collagen I, III, TGF-β, pSMAD2/3; assay: RNA (PCR) and protein (Western blotting) expression in scratched KFs; assay type: cell-based; conditions: KF, vs untreated negative control; for mRNA expression of collagen I, III, and TGF-β: PCR; for protein expression of collagen I, III, TGF-β, and pSMAD2/3: Western blotting
Method: as §1, §4
as §1, with “a wound generation model.” for “a wound.”, “a scarring” for “a scar”, “with Z15mer_1 to Z15mer_4 additionally synthesized in Preparation Example 2.” for “with the selected Z16 peptide.”
as §5

KFs = assay: Scratch assay, cell migration of KFs; assay type: cell-based; conditions: KF scratched, general medium, 24 hours
Method: as §1
as §1, with “a wound generation model.” for “a wound.”, “a scarring” for “a scar”, “with Z15mer_1 to Z15mer_4 additionally synthesized in Preparation Example 2.” for “with the selected Z16 peptide.”

keloid fibroblasts (KFs) = assay: CCK-8 assay, cell proliferation of KFs; assay type: cell-based; conditions: KF, 10 μg/mL, compared to untreated negative control / other candidates
Method: as §2, §3

[4] = system: hypertrophic scars or keloids; assay: Overall inhibitory effect on formation of hypertrophic scars or keloids (HDF/KF tests); assay type: cell-based; conditions: compared with ZAG16, scratch assay HDF and KF
Method: as §2
as §1, with “a wound generation model.” for “a wound.”, “a scarring” for “a scar”, “with Z15mer_1 to Z15mer_4 additionally synthesized in Preparation Example 2.” for “with the selected Z16 peptide.”

Molecule | migration of cells in the affected area (HDFs) | cell proliferation (CCK-8) [1] | mRNA expression of collagen I, III, and TGF-β [2] | protein expression of collagen I, III, TGF-β, and pSMAD2/3 [2] | mRNA expression of collagen I, III, and TGF-β [3] | protein expression of collagen I, III, TGF-β, and pSMAD2/3 [3] | migration of cells in the affected area (KFs) | cell proliferation (CCK-8) (keloid fibroblasts (KFs)) | inhibition of the formation of hypertrophic scars and keloids [4]
APGEKKKLKCLAYDFYPGKIDVHWTRAGEV (ZAG protein-derived peptide) [Peptide Z16] | inhibited | lowest cell proliferation | decreased | decreased | decreased | decreased | inhibited | lowest cell proliferation | 
APGEKKKLKCLAYDF (ZAG protein-derived peptide) [Peptide Z15mer_1] | greatest inhibition of cell migration | lowest proliferation | decreased | decreased | decreased | decreased | greatest inhibition of cell migration | lowest proliferation | more effectively than ZAG16
B1 |  | decreased cell proliferation |  |  |  |  |  | decreased cell proliferation | 

Source: patent US20240226233A1, “COMPOSITION COMPRISING ZAG-DERIVED PEPTIDE FOR IMPROVING SCARS AND KELOIDS” (L&C BIO CO., LTD., priority 2021, published 2024)
